Data published in US5854204A, “Aβ peptides that modulate β-amyloid aggregation” (priority 1996, dated 1998).
Numbered stars: 1 amine (or outer) side, 2 acyl side, 3 side chain; on linkers, the order of the positions; unused ones are H or OH. Square brackets hold non-standard residues; d marks the D form. Peptide text beside a SMILES is read from it. * marks the point of attachment. Cholyl = C[C@H](CCC(=O)*)[C@H]1CC[C@H]2[C@@H]3[C@H](O)C[C@@H]4C[C@H](O)CC[C@]4(C)[C@H]3C[C@H](O)[C@]12C; X2 = O=C(C1(O)C[C@H](O)[C@@H](N[*:1])[C@H]([C@H](O)[C@H](O)CO)O1)[*:2]; βAla = NCCC(=O)O

Experiments:
Aβ1-40 [1] = target: T1, Aβ1-40 (Homo sapiens, UniProt P05067); experiment: Seeded extension assay (thioflavin T fluorescence); assay type: biochemical; design: Natural β-AP (β-AP1-40) was obtained commercially from Bachem (Torrance, Calif.); purchased Bachem (Torrance, Calif.); details: Table V; 25 mole % inhibitor
Method: The seeded extension assay can be employed to measure the rate of Aβ fiber formed in a solution of Aβ monomer following addition of polymeric Aβ fiber "seed". The ability of test compounds to prevent further deposition of monomeric Aβ to previously deposited amyloid is determined using a direct indicator of β-sheet formation using fluorescence. In contrast with the nucleation assay, the addition of seed provides immediate nucleation and continued growth of preformed fibrils without the need for continuous mixing, and thus results in the absence of a lag time before polymerization starts. Since this assay uses static polymerization conditions, the activity of positive compounds in the nucleation assay can be confirmed in this second assay under different conditions and with an additional probe of amyloid structure.
Samples of the solution are then diluted in thioflavin T (Th-T). The polymer-specific association of Th-T with Aβ produces a fluorescent complex that allows the measurement of the extent of fibril formation (Levine, H. (1993) Protein Science 2:404-410). In particular, association of Th-T with aggregated β-AP, but not monomeric or loosely associated β-AP, gives rise to a new excitation (ex) maximum at 450 nm and an enhanced emission (em) at 482 nm, compared to the 385 nm (ex) and 445 nm (em) for the free dye. Small aliquots of the polymerization mixture contain sufficient fibril to be mixed with Th-T to allow the monitoring of the reaction mixture by repeated sampling. A linear growth curve is observed in the presence of excess monomer. The formation of thioflavin T responsive β-sheet fibrils parallels the increase in turbidity observed using the nucleation assay.
To prepare the stock seed, 1 ml of the Aβ monomer preparation, is incubated for approximately 8 days at 37° C. and sheared sequentially through an 18, 23, 26 and 30 gauge needle 25, 25, 50, and 100 times respectively. 2 μl samples of the sheared material is taken for fluorescence measurements after every 50 passes through the 30 gauge needle until the fluorescence units (FU) plateau (approx. 100-150×). Test compounds are prepared by dissolving an appropriate amount of test compound in 1× PBS to a final concentration of 1 mM (10× stock). If insoluble, the compound is dissolved in 1/10 volume of DMSO and diluted in 1× PBS to 1 mM. A further 1/10 dilution is also prepared to test each candidate at both 100 μM and 10 μM.
To perform the seeded extension assay, each sample is set up with 50 μl of 200 μM monomer, 125 FU sheared seed (a variable quantity dependent on the batch of seed, routinely 3-6 μl) and 10 μl of 10× modulator solution. The sample volume is then adjusted to a final volume of 100 μl with 1× PBS. Two concentrations of each modulator typically are tested: 100 μM and 10 μM, equivalent to a 1:1 and a 1:10 molar ratio of monomer to modulator. The controls include an unseeded reaction to confirm that the fresh monomer contains no seed, and a seeded reaction in the absence of any modulators, as a reference to compare against candidate modulators. The assay is incubated at 37° C. for 6 h, taking 2 μl samples hourly for fluorescence measurements. To measure fluorescence, a 2 μl sample of Aβ is added to 400 μl of Thioflavin-T solution (50 mM Potassium Phosphate […] pH 7.5). The samples are vortexed and the fluorescence is read in a 0.5 ml micro quartz cuvette at EX 450 nm and EM 482 nm (Hitachi 4500 Fluorimeter).
The modulators were evaluated in the nucleation and seeded extension assays described in Example 6 and the results are summarized below in Table V. The change in lag time (ΔLag) is presented as the ratio of the lag time observed in the presence of the test compound to the lag time of the control. […] Inhibition (% Inucl'n) is listed as the percent reduction in the maximum observed turbidity in the control at the end of the assay time period. […]

Aβ1-40 [2] = target: T1, Aβ1-40; experiment: biochemical; details: read-out: % Inucl'n (percent reduction in maximum turbidity)
Text: (§1) The nucleation assay is employed to determine the ability of test compounds to alter (e.g. inhibit) the early events in formation of β-AP fibers from monomeric β-AP. […] The time delay before polymerization of β-AP monomer can be quantified as well as the extent of formation of insoluble fiber by light scattering (turbidity). Polymerization reaches equilibrium when the maximum turbidity reaches a plateau. […] The threshold of sensitivity for the measurement of turbidity is in the range of 15-20 μM β-AP. […] This assay can be performed using stirring or shaking to accelerate polymerization, thereby increasing the speed of the assay. Moreover the assay can be adapted to a 96-well plate format to screen multiple compounds.
(§2) HFIP-solubilized peptide is sonicated in a waterbath sonicator for 5 min at highest setting, then evaporated to dryness under a stream of argon. […] Test compounds are dissolved in DMSO at a 100× concentration. […] Ten microliters of the mixture is then added to the bottom of a well of a Corning Costar ultra low binding 96-well plate (Corning Costar, Cambridge Mass.; cat. No. 2500). […] The plate is then returned to the shaker and shaken continuously for 5 hours. Turbidity readings are taken at 15 minute intervals.
(§3) Accordingly a fold increase in lag time of 1.0 indicates no change in lag time, whereas numbers >1.0 indicate an increase in lag time. The "% inhibition of plateau", which is a measure of the ability of the compound to decrease the total amount of aggregation, refers to the reduction of the final turbidity in the presence of the test compound expressed as a percent of the control without the test compound.

Aβ1-40 [3] = target: T1, Aβ1-40
Text: as §1, §2, §3
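Throughout, for % Inhibition of Plateau: Aβ nucleation assay tracking fiber polymerization from monomer by turbidity (light scattering), shaken continuously in 96-well plates, read every 15 min over 5 h, compared with compound-free control.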

T1 sequence (P05067 672-711): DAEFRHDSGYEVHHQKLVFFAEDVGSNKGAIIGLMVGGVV

| Structure (SMILES) | % Iext'n (percent reduction of thioflavin-T fluorescence) (Aβ1-40 [1]) | inhibition at 100 % (Aβ1-40 [2]) | inhibition at 33 % (Aβ1-40 [2]) | % Inhibition of Plateau (Aβ1-40 [3]) |
| --- | --- | --- | --- | --- |
| C[C@H](NC(=O)[C@H](Cc1ccccc1)NC(=O)[C@H](Cc1ccccc1)NC(=O)CC[C@@H](C)[C@H]1CC[C@H]2[C@@H]3[C@H](O)C[C@@H]4C[C@H](O)CC[C@]4(C)[C@H]3C[C@H](O)[C@]12C)C(=O)O [PPI-395] | 6% | 51% |  |  |
| CC(C)C[C@H](NC(=O)CC[C@@H](C)[C@H]1CC[C@H]2[C@@H]3[C@H](O)C[C@@H]4C[C@H](O)CC[C@]4(C)[C@H]3C[C@H](O)[C@]12C)C(=O)N[C@H](C(=O)N[C@@H](Cc1ccccc1)C(=O)O)C(C)C [PPI-393] | 0% | 1% |  |  |
| CC(C)C[C@H](NC(=O)CC[C@@H](C)[C@H]1CC[C@H]2[C@@H]3[C@H](O)C[C@@H]4C[C@H](O)CC[C@]4(C)[C@H]3C[C@H](O)[C@]12C)C(=O)N[C@H](C(=O)N[C@@H](Cc1ccccc1)C(=O)N[C@@H](Cc1ccccc1)C(=O)N[C@H](C)C(=O)O)C(C)C [PPI-381] | 11% | 56% |  |  |
| CC(C)C[C@H](NC(=O)[C@H](CCCCN)NC(=O)CC[C@@H](C)[C@H]1CC[C@H]2[C@@H]3[C@H](O)C[C@@H]4C[C@H](O)CC[C@]4(C)[C@H]3C[C@H](O)[C@]12C)C(=O)N[C@H](C(=O)N[C@@H](Cc1ccccc1)C(=O)N[C@@H](Cc1ccccc1)C(=O)NCCC(=O)O)C(C)C [PPI-371] (Cholyl-KLVFF[βAla]-OH) | 80% | 76% |  |  |
| CC(C)C[C@H](NC(=O)CC[C@@H](C)[C@H]1CC[C@H]2[C@@H]3[C@H](O)C[C@@H]4C[C@H](O)CC[C@]4(C)[C@H]3C[C@H](O)[C@]12C)C(=O)N[C@H](C(=O)N[C@@H](Cc1ccccc1)C(=O)N[C@@H](Cc1ccccc1)C(=O)N[C@@H](C)C(N)=O)C(C)C [PPI-382] | 91% | -200% |  |  |
| CC(C)C[C@H](NC(=O)[C@@H](NC(=O)[C@H](Cc1ccccc1)NC(=O)[C@H](Cc1ccccc1)NC(=O)CC[C@@H](C)[C@H]1CC[C@H]2[C@@H]3[C@H](O)C[C@@H]4C[C@H](O)CC[C@]4(C)[C@H]3C[C@H](O)[C@]12C)C(C)C)C(=O)N[C@@H](C)C(=O)O [PPI-426] (Cholyl-FFVLA-OH) | 89% | 100% |  |  |
| CC(C)C[C@H](NC(=O)CC[C@@H](C)[C@H]1CC[C@H]2[C@@H]3[C@H](O)C[C@@H]4C[C@H](O)CC[C@]4(C)[C@H]3C[C@H](O)[C@]12C)C(=O)N[C@H](C(=O)N[C@@H](Cc1ccccc1)C(=O)N[C@@H](Cc1ccccc1)C(=O)O)C(C)C [PPI-380] | 51% |  | 72% |  |
| CC(C)C[C@H](NC(=O)[C@H](CCCCN)NC(=O)CC[C@@H](C)[C@H]1CC[C@H]2[C@@H]3[C@H](O)C[C@@H]4C[C@H](O)CC[C@]4(C)[C@H]3C[C@H](O)[C@]12C)C(=O)N[C@H](C(=O)N[C@@H](Cc1ccccc1)C(=O)N[C@@H](Cc1ccccc1)C(=O)O)C(C)C [PPI-350, cholyl-Aβ16-20] | 11% |  |  |  |
| CC(C)C[C@H](NC(=O)[C@@H](NC(=O)[C@H](Cc1ccccc1)NC(=O)[C@H](CCCCN)NC(=O)[C@H](Cc1ccccc1)NC(=O)CC[C@@H](C)[C@H]1CC[C@H]2[C@@H]3[C@H](O)C[C@@H]4C[C@H](O)CC[C@]4(C)[C@H]3C[C@H](O)[C@]12C)C(C)C)C(=O)O [PPI-372] (Cholyl-FKFVL-OH) | 37% | 45% |  |  |
| CC(C)C[C@H](NC(=O)CC[C@@H](C)[C@H]1CC[C@H]2[C@@H]3[C@H](O)C[C@@H]4C[C@H](O)CC[C@]4(C)[C@H]3C[C@H](O)[C@]12C)C(=O)N[C@H](C(=O)N[C@@H](C)C(=O)N[C@@H](Cc1ccccc1)C(=O)N[C@@H](C)C(=O)O)C(C)C [PPI-390] (Cholyl-LVAFA-OH) | 0% | 25% |  |  |
| CC(C)[C@H](NC(=O)CC[C@@H](C)[C@H]1CC[C@H]2[C@@H]3[C@H](O)C[C@@H]4C[C@H](O)CC[C@]4(C)[C@H]3C[C@H](O)[C@]12C)C(=O)N[C@@H](Cc1ccccc1)C(=O)N[C@@H](Cc1ccccc1)C(=O)N[C@@H](C)C(=O)O [PPI-392] (Cholyl-VFFA-OH) | 10% | 76% |  |  |
| CC(C)C[C@H](NC(=O)CC[C@@H](C)[C@H]1CC[C@H]2[C@@H]3[C@H](O)C[C@@H]4C[C@H](O)CC[C@]4(C)[C@H]3C[C@H](O)[C@]12C)C(=O)N[C@H](C(=O)N[C@@H](Cc1ccccc1)C(=O)N[C@@H](Cc1ccccc1)C(=O)N[C@@H](CCCCN)C(=O)O)C(C)C [PPI-407] (Cholyl-LVFFK-OH) | 85% |  | 100% |  |
| CC(C)C[C@H](NC(=O)[C@H](CCCCN)NC(=O)CCCC[C@@H]1SC[C@@H]2NC(=N)N[C@@H]21)C(=O)N[C@H](C(=O)N[C@@H](Cc1ccccc1)C(=O)N[C@@H](Cc1ccccc1)C(=O)O)C(C)C [PPI-374, iminobiotinyl-Aβ16-20] | 0% |  |  | 86% |
| CC(=O)N[C@H]1[C@H]([C@H](O)[C@H](O)CO)OC(O)(C(=O)N[C@@H](CCCCN)C(=O)N[C@@H](CC(C)C)C(=O)N[C@H](C(=O)N[C@@H](Cc2ccccc2)C(=O)N[C@@H](Cc2ccccc2)C(=O)O)C(C)C)C[C@@H]1O (stereo partly shown) [PPI-373] (Ac-[X2]KLVFF-OH) | 8% | 16% |  |  |
| CC(C)C[C@H](NC(=O)[C@H](CCCCN)NC(=O)[C@H](CCC(N)=O)NC(=O)[C@H](Cc1c[nH]cn1)NC(=O)CC[C@@H](C)[C@H]1CC[C@H]2[C@@H]3[C@H](O)C[C@@H]4C[C@H](O)CC[C@]4(C)[C@H]3C[C@H](O)[C@]12C)C(=O)N[C@H](C(=O)N[C@@H](Cc1ccccc1)C(=O)N[C@@H](Cc1ccccc1)C(=O)O)C(C)C [PPI-348] (Cholyl-HQKLVFF-OH) |  |  | 70% | 49% |
| CC(C)C[C@H](NC(=O)[C@H](CCCCN)NC(=O)CC[C@@H](C)[C@H]1CC[C@H]2[C@@H]3[C@H](O)C[C@@H]4C[C@H](O)CC[C@]4(C)[C@H]3C[C@H](O)[C@]12C)C(=O)N[C@H](C(=O)N[C@@H](C)C(=O)N[C@@H](Cc1ccccc1)C(=O)O)C(C)C [PPI-370, cholyl-Aβ16-20 Phe19- >Ala] (Cholyl-KLVAF-OH) | 31% |  |  | 73% |
| CC(C)C[C@H](NC(=O)[C@H](CCCCN)NC(=O)CC[C@@H](C)[C@H]1CC[C@H]2[C@@H]3[C@H](O)C[C@@H]4C[C@H](O)CC[C@]4(C)[C@H]3C[C@H](O)[C@]12C)C(=O)N[C@H](C(=O)N[C@@H](Cc1ccccc1)C(=O)N[C@@H](Cc1ccccc1)C(=O)O)[C@@H](C)O [PPI-369] (Cholyl-KLTFF-OH) | 44% |  |  | ~ 0% |
| COC(=O)[C@H](C)NC(=O)[C@H](Cc1ccccc1)NC(=O)[C@H](Cc1ccccc1)NC(=O)[C@@H](NC(=O)[C@H](CC(C)C)NC(=O)CC[C@@H](C)[C@H]1CC[C@H]2[C@@H]3[C@H](O)C[C@@H]4C[C@H](O)CC[C@]4(C)[C@H]3C[C@H](O)[C@]12C)C(C)C [PPI-401] | 0% |  |  |  |
